This passage reports IC50 results from paper PMC11364541 (Nature Communications, 2024).

The target in this experiment is T1, SLC13A3 (Homo sapiens, UniProt Q8WWT9).
T1 sequence (Q8WWT9 1-602): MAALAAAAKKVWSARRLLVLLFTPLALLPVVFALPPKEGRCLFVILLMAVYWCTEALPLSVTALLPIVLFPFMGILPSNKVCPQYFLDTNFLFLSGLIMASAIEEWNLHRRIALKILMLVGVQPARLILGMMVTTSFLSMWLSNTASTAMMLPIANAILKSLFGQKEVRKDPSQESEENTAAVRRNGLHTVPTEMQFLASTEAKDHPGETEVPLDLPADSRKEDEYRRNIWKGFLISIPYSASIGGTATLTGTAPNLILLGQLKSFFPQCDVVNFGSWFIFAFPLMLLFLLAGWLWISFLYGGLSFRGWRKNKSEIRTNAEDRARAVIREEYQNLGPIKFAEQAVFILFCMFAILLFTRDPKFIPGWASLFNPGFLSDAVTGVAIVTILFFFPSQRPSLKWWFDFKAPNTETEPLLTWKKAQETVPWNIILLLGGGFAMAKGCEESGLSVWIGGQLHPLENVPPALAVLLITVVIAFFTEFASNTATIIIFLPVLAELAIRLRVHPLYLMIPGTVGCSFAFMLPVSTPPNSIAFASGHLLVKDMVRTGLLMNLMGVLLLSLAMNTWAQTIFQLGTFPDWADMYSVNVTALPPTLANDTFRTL
As to the kind of experiment: inhibition of […]-succinate uptake in SLC13A3-transfected HEK293 cells. The experiment is classed as cell-based.

SMILES strings stand for the structures.

The compound `N[C@@H](CCC(=O)N[C@@H](CS)C(=O)NCC(=O)O)C(=O)O` [GSH, glutathione] displayed an IC50 of 1890 µM.

For orientation: IC50 means the concentration at which inhibition is half-maximal. Higher therefore signals lower potency.
